Several values for one entry are separate records, joined by “and”; a condition that tells them apart may be missing. Identical values can stand only once.
Tested on: oral mucositis induced in hamsters by acute radiation (40 Gy to left buccal cheek pouch)
Assay: ACT-03 (Example 2): acute radiation model of oral mucositis in hamsters, mucositis scoring
Type: in vivo, Syrian Golden Hamsters
Design: key to Mucositis score / Mucositis Scores: 0: Pouch completely healthy. No erythema or vasodilation.; 1: Light to severe erythema and vasodilation. No erosion of mucosa.; 2: Severe erythema and vasodilation. Erosion of superficial aspects of mucosa leaving denuded areas. Decreased stippling of mucosa.; 3: Formation of off-white ulcers in one or more places. Ulcers may have a yellow/gray due to pseudomembrane. Cumulative size of ulcers should equal about ¼ of the pouch. Severe erythema and vasodilation.; 4: Cumulative seize of ulcers should equal about ½ of the pouch. Loss of pliability. Severe erythema and vasodilation.; 5: Virtually all of pouch is ulcerated. Loss of pliability (pouch can only partially be extracted from mouth); peak mean mucositis score: scale not given here
Settings: for Mucositis Scores: first study, single animal, blinded scorer; for Mucositis score: individual animal, 2 blinded scorers
Source text: The acute radiation model in hamsters, developed by the Principal Investigator, has proven to be an accurate, efficient and cost-effective technique to provide a preliminary evaluation of anti-mucositis compounds (9). The course of mucositis in this model is well defined and results in peak scores approximately 14-16 Days following radiation. The acute model has little systemic toxicity, resulting in few hamster deaths, thus permitting the use of smaller groups (N=7-8) for initial efficacy studies. It has also been used to study specific mechanistic elements in the pathogenesis of mucositis. Molecules that show efficacy in the acute radiation model may be further evaluated in the more complex models of fractionated radiation, chemotherapy, or concomitant therapy.
In this study, an acute radiation dose of 40 Gy on day 0 was administered locally to the cheek pouch. Clinically significant mucositis was observed on days 12 through 28.
Seventy-two male Syrian Golden Hamsters were divided randomly into 9 groups of 8 animals and given an acute radiation dose of 40 Gy directed to their left buccal cheek pouch. This was accomplished by anesthetizing the animals and everting the left buccal pouch, while protecting the rest of the animal with a lead shield. […] Mucositis was evaluated clinically starting on Day 6, and continued on alternate days until day 28.
The grade of mucositis was scored, beginning on day 6, and for every second day thereafter, through and including day 28 (for scoring scheme, see Table 6 and FIG. 8). The effect on mucositis of each drug treatment compared to ip vehicle-treated controls was assessed according to the following parameters:
The difference in the number of days hamsters in each group have ulcerative (score≧3) mucositis.
On each evaluation day, the number of animals with a blinded mucositis score of ≧3 in each drug treatment group was compared to the vehicle-treated control group. Differences were compared on a cumulative basis and statistical significance was determined by chi-square analysis. Efficacy, in this analysis, is defined as a significant reduction in the number of days that a group of animals had ulcerations (scores≧3) when compared to the control group.
For each evaluation day the scores of the control group were compared to those of the treated groups using non-parametric rank sum analysis. Treatment success was considered as a statistically significant lowering of scores in the treated group on 2 or more days from day 6 to day 28.
All seventy-two (72) male Syrian Golden Hamsters were given an acute radiation dose of 40 Gy directed to their left buccal cheek pouch. This was accomplished by anesthetizing the animals and everting the left buccal pouch, while protecting the rest of the animal with a lead shield. […] Mucositis was evaluated clinically starting on day 6, and continuing on alternate days until day 28. The study timeline is depicted in FIG. 7. Dose levels were determined based on the results of a previous acute toxicity study (data not published), and in the prior mucositis study of Example 1, shown in Table 5.
Mucositis was induced using a standardized acute radiation protocol. A single dose of radiation (40 Gy/dose) was administered to all animals on day 0. Radiation was generated with a 250 kilovolt potential (15-ma) source at a focal distance of 50 cm, hardened with a 0.35 mm Cu filtration system. Irradiation targeted the left buccal pouch mucosa at a rate of 3.2 Gy/minute. Prior to irradiation, animals were anesthetized with an intra-peritoneal injection of Ketamine (160 mg/kg) and Xylazine (8 mg/kg). The left buccal pouch was everted, fixed and isolated using a lead shield.
The mucositis score, weight change and survival were measured throughout the study as described above. For the evaluation of mucositis, the animals were anesthetized with isoflurane and the left pouch everted. […]

[1] = group 2: ip 30 mg/kg once daily day −1 to 3
[2] = group 2: ip 30 mg/kg qd day −1 to 3
[3] = group 3: ip 3 mg/kg bid day −1 to 3
[4] = group 4: ip 10 mg/kg bid day −1 to 3
[5] = group 4: ip 10 mg/kg twice daily day −1 to 3
[6] = group 5: ip 30 mg/kg bid day −1 to 3
[7] = group 5: ip 30 mg/kg twice daily day −1 to 3
[8] = group 6: ip 30 mg/kg once daily day 0 to 3
[9] = group 6: ip 30 mg/kg qd day 0 to 3
[10] = group 7: ip 30 mg/kg bid day 0 to 3
[11] = group 7: ip 30 mg/kg twice daily day 0 to 3
[12] = group 8: ip 30 mg/kg twice daily on day 0
[13] = group 9: ip 30 mg/kg bid day 0 & 7

## [Cl-].[Cl-].[Mn+2].c1cc2nc(c1)CN[C@@H]1CCCC[C@H]1NCCN[C@@H]1CCCC[C@H]1NC2 [M40403]
Group 8: 30 mg/kg/dose twice daily on day 0, day 6, 30 mg/kg
  Mucositis Scores: 0 (4×) and 1 (2×)
Group 8: 30 mg/kg/dose twice daily on day 0, day 8
  Mucositis Scores: 0
Group 8: 30 mg/kg/dose twice daily on day 0, day 10, 30 mg/kg
  Mucositis Scores: 0 (3×) and 1 (3×)
Group 8: 30 mg/kg/dose twice daily on day 0, day 12, 30 mg/kg
  Mucositis Scores: 2 (5×) and 1
Group 8: 30 mg/kg/dose twice daily on day 0, day 14, 30 mg/kg
  Mucositis Scores: 3 (4×) and 2 (2×)
Group 8: 30 mg/kg/dose twice daily on day 0, day 16, 30 mg/kg
  Mucositis Scores: 2 (4×) and 3 (2×)
Group 8: 30 mg/kg/dose twice daily on day 0, day 18, 30 mg/kg
  Mucositis Scores: 1 (3×) and 2 and 3 (2×)
Group 8: 30 mg/kg/dose twice daily on day 0, day 20, 30 mg/kg
  Mucositis Scores: 2 (2×) and 1 (2×) and 3 (2×)
Group 8: 30 mg/kg/dose twice daily on day 0, day 22
  Mucositis Scores: 2
Group 8: 30 mg/kg/dose twice daily on day 0, day 24, 30 mg/kg
  Mucositis Scores: 0 (3×) and 2 (2×) and 1
Group 8: 30 mg/kg/dose twice daily on day 0, day 26, 30 mg/kg
  Mucositis Scores: 1 (2×) and 0 (3×) and 2
Group 8: 30 mg/kg/dose twice daily on day 0, day 28, 30 mg/kg
  Mucositis Scores: 0 (3×) and 1 (3×)
Group 9: 30 mg/kg/dose twice daily on day 0 and on day 7, day 6, 30 mg/kg
  Mucositis Scores: 0 and 1
Group 9: 30 mg/kg/dose twice daily on day 0 and on day 7, day 8, 30 mg/kg
  Mucositis Scores: 0
Group 9: 30 mg/kg/dose twice daily on day 0 and on day 7, day 10, 30 mg/kg
  Mucositis Scores: 1 and 0
Group 9: 30 mg/kg/dose twice daily on day 0 and on day 7, day 12, 30 mg/kg
  Mucositis Scores: 2
Group 9: 30 mg/kg/dose twice daily on day 0 and on day 7, day 14, 30 mg/kg
  Mucositis Scores: 2
Group 9: 30 mg/kg/dose twice daily on day 0 and on day 7, day 16, 30 mg/kg
  Mucositis Scores: 3
Group 9: 30 mg/kg/dose twice daily on day 0 and on day 7, day 18, 30 mg/kg
  Mucositis Scores: 3
Group 9: 30 mg/kg/dose twice daily on day 0 and on day 7, day 20, 30 mg/kg
  Mucositis Scores: 2
Group 9: 30 mg/kg/dose twice daily on day 0 and on day 7, day 22, 30 mg/kg
  Mucositis Scores: 2 (2×) and 0
Group 9: 30 mg/kg/dose twice daily on day 0 and on day 7, day 24, 30 mg/kg
  Mucositis Scores: 0 and 1 (2×)
Group 9: 30 mg/kg/dose twice daily on day 0 and on day 7, day 26, 30 mg/kg
  Mucositis Scores: 2 and 1 (2×)
Group 9: 30 mg/kg/dose twice daily on day 0 and on day 7, day 28, 30 mg/kg
  Mucositis Scores: 1 and 2 and 0
[1]
  day of peak mean mucositis score: 16 days
  peak mean mucositis score: 2.8
[2]
  Chi Sq v control, days with mucositis score >=3: 4.4860
  Days <3 (animal days with a mucositis score below 3): 108
  Days >=3 (animal days with a mucositis score of three or more): 36
Group 2: ip 30 mg/kg qd day −1 to 3, 30 mg/kg
  % Days >=3 (percentage of animal days with a mucositis score of 3 or higher): 25%
[3]
  Chi Sq v control, days with mucositis score >=3: 5.3950
  Days <3 (animal days with a mucositis score below 3): 144
  Days >=3 (animal days with a mucositis score of three or more): 48
Group 3: ip 3 mg/kg bid day −1 to 3, 3 mg/kg
  % Days >=3 (percentage of animal days with a mucositis score of 3 or higher): 25%
Group 3: ip 3 mg/kg twice daily day −1 to 3
  peak mean mucositis score: 2.9
[4]
  Chi Sq v control, days with mucositis score >=3: 1.1996
  Days <3 (animal days with a mucositis score below 3): 136
  Days >=3 (animal days with a mucositis score of three or more): 56
Group 4: ip 10 mg/kg bid day −1 to 3, 10 mg/kg
  % Days >=3 (percentage of animal days with a mucositis score of 3 or higher): 29.2% and 29.17%
[5]
  day of peak mean mucositis score: 16 days
  peak mean mucositis score: 3.0
[6]
  Chi Sq v control, days with mucositis score >=3: 7.229
  Days <3 (animal days with a mucositis score below 3): 112
  Days >=3 (animal days with a mucositis score of three or more): 32
Group 5: ip 30 mg/kg bid day −1 to 3, 30 mg/kg
  % Days >=3 (percentage of animal days with a mucositis score of 3 or higher): 22.2% and 22.22%
[7]
  day of peak mean mucositis score: 16 days
  peak mean mucositis score: 2.8
Group 6, day 6
  Mucositis score: 1 and 0 (4×)
Group 6, day 8
  Mucositis score: 0 (4×) and 1
Group 6, day 10
  Mucositis score: 0 (4×) and 1
Group 6, day 12
  Mucositis score: 2 (4×) and 0
Group 6, day 14
  Mucositis score: 2 (3×) and 3 (2×)
Group 6, day 16
  Mucositis score: 4 and 3 (4×)
Group 6, day 18
  Mucositis score: 4 and 3 (2×) and 2 (2×)
Group 6, day 20
  Mucositis score: 4 and 3 (2×) and 2 (2×)
Group 6, day 22
  Mucositis score: 4 and 2 (2×) and 0 and 1
Group 6, day 24
  Mucositis score: 4 and 2 (4×)
Group 6, day 26
  Mucositis score: 3 and 2 (3×) and 1
Group 6, day 28
  Mucositis score: 2 (2×) and 0 and 1 (2×)
[8]
  day of peak mean mucositis score: 16 days
  peak mean mucositis score: 3.2
[9]
  Chi Sq v control, days with mucositis score >=3: 1.029
  Days <3 (animal days with a mucositis score below 3): 100
  Days >=3 (animal days with a mucositis score of three or more): 44
Group 6: ip 30 mg/kg qd day 0 to 3, 30 mg/kg
  % Days >=3 (percentage of animal days with a mucositis score of 3 or higher): 30.6% and 30.56%
Group 7, day 6
  Mucositis score: 0
Group 7, day 8
  Mucositis score: 0 (2×) and 1
Group 7, day 10
  Mucositis score: 1 and 0 (2×)
Group 7, day 12
  Mucositis score: 2
Group 7, day 14
  Mucositis score: 2
Group 7, day 16
  Mucositis score: 1 (2×) and 2
Group 7, day 18
  Mucositis score: 1 and 0 and 3
Group 7, day 20
  Mucositis score: 1 (2×) and 0
Group 7, day 22
  Mucositis score: 0 and 1 (2×) and 2
Group 7, day 24
  Mucositis score: 1 (2×) and 0 (2×)
Group 7, day 26
  Mucositis score: 1 (3×) and 0
Group 7, day 28
  Mucositis score: 1 (3×) and 0
[10]
  Chi Sq v control, days with mucositis score >=3: 38.3440
  Days <3 (animal days with a mucositis score below 3): 174
  Days >=3 (animal days with a mucositis score of three or more): 18
Group 7: ip 30 mg/kg bid day 0 to 3, 30 mg/kg
  % Days >=3 (percentage of animal days with a mucositis score of 3 or higher): 9.4% and 9.38%
[11]
  day of peak mean mucositis score: 16 days
  peak mean mucositis score: 2.2
Group 8: ip 30 mg/kg bid day 0
  Chi Sq v control, days with mucositis score >=3: 25.681
  Days <3 (animal days with a mucositis score below 3): 166
  Days >=3 (animal days with a mucositis score of three or more): 26
Group 8: ip 30 mg/kg bid day 0, 30 mg/kg
  % Days >=3 (percentage of animal days with a mucositis score of 3 or higher): 13.5% and 13.54%
[12]
  day of peak mean mucositis score: 14 days
  peak mean mucositis score: 2.4
[13]
  Chi Sq v control, days with mucositis score >=3: 19.113
  Days <3 (animal days with a mucositis score below 3): 142
  Days >=3 (animal days with a mucositis score of three or more): 26
Group 9: ip 30 mg/kg bid day 0 & 7, 30 mg/kg
  % Days >=3 (percentage of animal days with a mucositis score of 3 or higher): 15.5% and 15.48%
Group 9: ip 30 mg/kg twice daily on day 0 and day 7
  peak mean mucositis score: 2.4

Reference: US9642861B2, “Methods of treating oral mucositis” (priority 2006, dated 2017)
